Among the data in patent US9649314B2, “Pyrimido[4,5-b]quinoline-4,5(3H,10H)-diones” (NOVARTIS AG, priority 2012, dated 2017) are Emax, AC50 and EC50 values, retold here.

This assay has as its system CFTR-Y122X. The assay can be described thus: CFTR-Y122X assay (dual reporter isogenic Hek293 cell lines, Renilla luminescence readthrough). The class given is cell-based. Conditions: Homo sapiens, HEK293; for Emax / AC50: nonsense mutation suppression, 24 h incubation; for Emax: 100% = 14 mM paromomycin, tested up to 100 μM, read-out: Amax [%]; for Emax at 25 µM: measured at 25 μM compound concentration (footnote a); for Emax at 100 µM: measured at 100 μM compound concentration (footnote d). The method, boiled down:
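Stable isogenic HEK dual-reporter line (eGFP–CFTR Y122X TGA PTC–myc–Renilla); 2000 cells/well, 24 h, then compound (10 μM; tested up to 100 μM) 24 h at 37 °C. Renilla luminescence normalised to neutral (0%) and 14 mM paromomycin (100%); wildtype construct counterscreen.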

[1] abbreviates: read-out: Amax [%]: % nonsense mutation suppression relative to paromomycin reference activity.

On to `Cn1c2ccccc2c(=O)c2c(=O)n(C3CCCCCC3)c(-c3ccccc3)nc21` [Example 2.26, 3-cycloheptyl-10-methyl-2-phenylpyrimido[4,5-b]quinoline-4,5(3H,10H)-dione], for which the Emax was 97% and half-maximal activity (AC50) was put at 11.1 µM.
For `COc1ccc(-c2nc3c(c(=O)c4ccccc4n3C)c(=O)n2C2CCCCC2)cc1` [Example 2.27, 3-cyclohexyl-2-(4-methoxyphenyl)-10-methylpyrimido[4,5-b]quinoline-4,5(3H,10H)-dione], the Emax at 25 µM under setting [1] turned out to be 97%.
As to `Cn1c2ccccc2c(=O)c2c(=O)n(C3CCCC3)c(C3CCCCC3)nc21` [Example 2.28, 2-cyclohexyl-3-cyclopentyl-10-methylpyrimido[4,5-b]quinoline-4,5(3H,10H)-dione], the Emax worked out at 89% and the AC50 was determined as 15.1 µM.
For `CC(C)c1nc2c(c(=O)c3ccccc3n2C)c(=O)n1C1CCCCC1` [Example 2.29, 3-cyclohexyl-2-isopropyl-10-methylpyrimido[4,5-b]quinoline-4,5(3H,10H)-dione] the same measures were 73% and 14.3 µM.
For `Cn1c2ccccc2c(=O)c2c(=O)n(C3CCCCC3)c(-c3cccc(Br)c3)nc21` [Example 2.30, 2-(3-bromophenyl)-3-cyclohexyl-10-methylpyrimido[4,5-b]quinoline-4,5(3H,10H)-dione] the same measures were 71% and 22.2 µM.
With `Cn1c2ccccc2c(=O)c2c(=O)n(C3CCCC3)c(-c3ccccc3F)nc21` [Example 2.32, 3-cyclopentyl-2-(2-fluorophenyl)-10-methylpyrimido[4,5-b]quinoline-4,5(3H,10H)-dione], the Emax at 100 µM under setting [1] was determined as 43%.
As for `Cn1c2ccccc2c(=O)c2c(=O)n(C3CCCC3)c(-c3ccc(F)cc3)nc21` [Example 2.33, 3-cyclopentyl-2-(4-fluorophenyl)-10-methylpyrimido[4,5-b]quinoline-4,5(3H,10H)-dione], under setting [1], the Emax at 100 µM stood at 18%.
Turning to `Cc1ccccc1-c1nc2c(c(=O)c3ccccc3n2C)c(=O)n1C1CCCC1` [Example 2.34, 3-cyclopentyl-10-methyl-2-(o-tolyl)pyrimido[4,5-b]quinoline-4,5(3H,10H)-dione], the Emax was found to be 33% and half-maximal activity (AC50) was put at 8.4 µM.
In the same order, the values of `Cn1c2ccccc2c(=O)c2c(=O)n(C3CCCC3)c(-c3ccccc3Cl)nc21` [Example 2.35, 2-(2-chlorophenyl)-3-cyclopentyl-10-methylpyrimido[4,5-b]quinoline-4,5(3H,10H)-dione] are 31% and 9.4 µM.
In the same order, the values of `Cc1ccc(-c2nc3c(c(=O)c4ccccc4n3C)c(=O)n2C2CCCCC2)cc1` [Example 2.36, 3-cyclohexyl-10-methyl-2-(p-tolyl)pyrimido[4,5-b]quinoline-4,5(3H,10H)-dione] are 29% and 3.5 µM.
As to `Cc1ccccc1-c1nc2c(c(=O)c3ccccc3n2C)c(=O)n1C1CCCCC1` [Example 2.37, 3-cyclohexyl-10-methyl-2-(o-tolyl)pyrimido[4,5-b]quinoline-4,5(3H,10H)-dione], the Emax at 100 µM under setting [1] came out at 28%.
With `Cn1c2ccccc2c(=O)c2c(=O)n(C3CCCCC3)c(-c3ccccc3Cl)nc21` [Example 2.38, 2-(2-chlorophenyl)-3-cyclohexyl-10-methylpyrimido[4,5-b]quinoline-4,5(3H,10H)-dione], the Emax is 21% and half-maximal activity (AC50) was put at 10 µM.
Consider `Cn1c2ccccc2c(=O)c2c(=O)n(C3CCCC3)c(-c3ccccc3)nc21` [Example 2.39, 3-cyclopentyl-10-methyl-2-phenylpyrimido[4,5-b]quinoline-4,5(3H,10H)-dione], for which the Emax at 50 µM (measured at 50 μM compound concentration (footnote e), read-out: Amax [%]: % nonsense mutation suppression relative to paromomycin reference activity) turned out to be 31%.
For `Cc1ccc(-c2nc3c(c(=O)c4ccccc4n3C)c(=O)n2C2CCCC2)cc1` [Example 2.40, 3-cyclopentyl-10-methyl-2-(p-tolyl)pyrimido[4,5-b]quinoline-4,5(3H,10H)-dione], the Emax is 20% and the AC50 is 6.7 µM.
For the molecule `Cn1c2ccccc2c(=O)c2c(=O)n(C3CCCCC3)c(-c3ccccc3F)nc21` [Example 2.41, 3-cyclohexyl-2-(2-fluorophenyl)-10-methylpyrimido[4,5-b]quinoline-4,5(3H,10H)-dione], the Emax worked out at 18% and the activity was half-maximal at 4.9 µM (AC50).
In the same order, the values of `COc1cc(-c2nc3c(c(=O)c4ccccc4n3C)c(=O)n2C2CCCCCC2)cc(OC)c1OC` [Example 2.42, 3-cycloheptyl-10-methyl-2-(3,4,5-trimethoxyphenyl)pyrimido[4,5-b]quinoline-4,5(3H,10H)-dione] are 18% and 10.7 µM.
In the same order, the values of `Cn1c2ccccc2c(=O)c2c(=O)n(C3CCCC3)c(-c3cccs3)nc21` [Example 2.43, 3-cyclopentyl-10-methyl-2-(thiophen-2-yl)pyrimido[4,5-b]quinoline-4,5(3H,10H)-dione] are 17% and 14.7 µM.
For `Cn1c2ccccc2c(=O)c2c(=O)n(C3CCCCC3)c(-c3ccc(Cl)cc3)nc21` [Example 2.44, 2-(4-chlorophenyl)-3-cyclohexyl-10-methylpyrimido[4,5-b]quinoline-4,5(3H,10H)-dione], the Emax turned out to be 16%.
Regarding `Cn1c2ccccc2c(=O)c2c(=O)n(C3CCCCC3)c(-c3ccc([N+](=O)[O-])cc3)nc21` [Example 2.45, 3-cyclohexyl-10-methyl-2-(4-nitrophenyl)pyrimido[4,5-b]quinoline-4,5(3H,10H)-dione], the Emax is 14% and the AC50 was 11 µM.
On to `Cn1c2ccccc2c(=O)c2c(=O)n(C3CCCCCC3)c(-c3cccc([N+](=O)[O-])c3)nc21` [Example 2.46, 3-cycloheptyl-10-methyl-2-(3-nitrophenyl)pyrimido[4,5-b]quinoline-4,5(3H,10H)-dione], for which the Emax was 12% and half-maximal activity (AC50) was put at 4.2 µM.
On to `COc1ccc(-c2nc3c(c(=O)c4ccccc4n3C)c(=O)n2C2CCCCCC2)cc1` [Example 2.47, 3-cycloheptyl-2-(4-methoxyphenyl)-10-methylpyrimido[4,5-b]quinoline-4,5(3H,10H)-dione], for which the Emax came to 10% and the AC50 came to 3.1 µM.
Take `Cc1ccccc1-c1nc2c(c(=O)c3ccccc3n2C)c(=O)n1C1CCCCCC1` [Example 2.48, 3-cycloheptyl-10-methyl-2-(o-tolyl)pyrimido[4,5-b]quinoline-4,5(3H,10H)-dione]: the Emax at 100 µM under setting [1] worked out at 7%.
Regarding `Cn1c2ccccc2c(=O)c2c(=O)n(C3CCCC3)c(-c3ccco3)nc21` [Example 2.49, 3-cyclopentyl-2-(furan-2-yl)-10-methylpyrimido[4,5-b]quinoline-4,5(3H,10H)-dione], the Emax came to 7% and the AC50 was found to be 1.8 µM.
Take `Cn1c2ccccc2c(=O)c2c(=O)n(C3CCCCCC3)c(-c3cccc(Br)c3)nc21` [Example 2.50, 2-(3-bromophenyl)-3-cycloheptyl-10-methylpyrimido[4,5-b]quinoline-4,5(3H,10H)-dione]: the Emax came out at 6% and half-maximal activity (AC50) was put at 4.4 µM.
`CC(C)c1nc2c(c(=O)c3cccc(Cl)c3n2C)c(=O)n1C1CCCC1` [Example 2.51, 9-chloro-3-cyclopentyl-2-isopropyl-10-methylpyrimido[4,5-b]quinoline-4,5(3H,10H)-dione]: the Emax at 25 µM under setting [1] worked out at 6%.
Take `CCSc1nc2[nH]c3ccccc3c(=O)c2c(=O)n1-c1ccccc1` [Example 3.1, 2-(ethylthio)-3-phenylpyrimido[4,5-b]quinoline-4,5(3H,10H)-dione]: the Emax worked out at 65% and the AC50 was 5.8 µM.
In the same order, the values of `CN(C)c1nc2[nH]c3ccccc3c(=O)c2c(=O)n1-c1ccccc1` [Example 3.2, 2-(dimethylamino)-3-phenylpyrimido[4,5-b]quinoline-4,5(3H,10H)-dione] are 294% and 11.6 µM.
Take `CN(C)c1nc2c(c(=O)c3ccccc3n2C)c(=O)n1-c1ccccc1` [Example 3.3, 2-(dimethylamino)-10-methyl-3-phenylpyrimido[4,5-b]quinoline-4,5(3H,10H)-dione]: the Emax turned out to be 18% and half-maximal activity (AC50) was put at 3.5 µM.
Turning to `NC[C@@H]1O[C@H](O[C@H]2[C@@H](O)[C@H](O[C@@H]3[C@@H](O)[C@H](N)C[C@H](N)[C@H]3O[C@H]3O[C@H](CO)[C@@H](O)[C@H](O)[C@H]3N)O[C@@H]2CO)[C@H](N)[C@@H](O)[C@@H]1O` [paromomycin, reference compound], the EC50 (clone pursued for HTS assay development, read-out: EC50 (readthrough response of the selected clone)) turned out to be 1500 µM.
